Data reported in ChEMBL document CHEMBL1201862, “PubChem BioAssay data set” (2004).
Activity calls are given as the source filed them.

Assays:
[1] = molecular target: T1, Sentrin-specific protease 8 (Homo sapiens, UniProt Q96LD8); assay: inhibition of human SENP8 cleavage activity – biochemical, luminescence, SAR follow-up (AID 504501); format: functional
T1 sequence (Q96LD8 whole entry): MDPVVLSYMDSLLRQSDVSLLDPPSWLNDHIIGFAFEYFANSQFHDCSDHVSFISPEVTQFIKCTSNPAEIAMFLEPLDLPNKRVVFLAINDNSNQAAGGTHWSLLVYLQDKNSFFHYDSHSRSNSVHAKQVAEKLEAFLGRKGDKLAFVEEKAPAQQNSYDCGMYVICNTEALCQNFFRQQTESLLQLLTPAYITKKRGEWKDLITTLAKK

[2] = test system: Streptococcus sp. 'group A'; assay: Streptococcus pyogenes SK(-)GAS viability under kanamycin – luminescence, BacTiterGlo, confirmation, counter-screen for streptokinase expression inhibitor project, dose response (AID 1900); format: functional, organism-based

Row | Structure (SMILES) | IC50 [1] | EC50 [2]
1 | Oc1ccc(/C=N\Nc2cc(N3CCOCC3)nc(N3CCOCC3)n2)c(O)c1 | > 99 µM (inactive) | 
2 | Cc1ccc(C)c(S(=O)(=O)N2CCN(Cc3ccc(O)c4ncccc34)CC2)c1 |  | 6.87 µM (active)
